Reference: ChEMBL document CHEMBL1124890 (J Med Chem, 1990)
Numbered stars: 1 amine (or outer) side, 2 acyl side, 3 side chain; on linkers, the order of the positions; unused ones are H or OH. Square brackets hold non-standard residues; d marks the D form. Peptide text beside a SMILES is read from it. X6 = CN(C)C[C@H]1C=NN([*:1])[C@H](C(=O)[*:2])C1; X5 = O=C1CC[C@@H](C(=O)[*:2])N([*:1])N1; dPiz(1,6-dehydro) = O=C(O)[C@H]1CCC=NN1; X2 = CN1CCC[C@@H](C(=O)[*:2])N1[*:1]; X1 = CN1CCC[C@H](C(=O)[*:2])N1[*:1]; X7 = O=C([C@@H]1C=CC=NN1[*:1])[*:2]; X4 = O=C([C@@H]1CCCNN1[*:1])[*:2]; X3 = O=C([C@H]1CCCNN1[*:1])[*:2]; dNMeF = CN[C@H](Cc1ccccc1)C(=O)O

Tests used:
[1] = target: T1, Oxytocin receptor (Rattus norvegicus, UniProt P70536); test: Binding affinity against oxytocin receptor in rat uterus
T1 sequence (P70536 whole entry): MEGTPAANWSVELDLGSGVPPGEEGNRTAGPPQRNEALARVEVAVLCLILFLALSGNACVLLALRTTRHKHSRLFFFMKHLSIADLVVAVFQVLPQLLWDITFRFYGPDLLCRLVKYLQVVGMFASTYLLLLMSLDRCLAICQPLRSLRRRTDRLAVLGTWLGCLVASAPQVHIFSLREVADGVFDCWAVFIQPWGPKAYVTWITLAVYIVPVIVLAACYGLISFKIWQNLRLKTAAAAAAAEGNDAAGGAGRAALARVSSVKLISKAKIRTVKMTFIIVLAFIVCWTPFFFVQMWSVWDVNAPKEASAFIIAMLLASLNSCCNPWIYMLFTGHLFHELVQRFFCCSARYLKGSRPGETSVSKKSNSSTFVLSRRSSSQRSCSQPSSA

[2] = target: Vasopressin V2 receptor (Rattus norvegicus, UniProt Q00788); test: Binding affinity against Vasopressin receptor in rat kidney medulla
Vasopressin V2 receptor, sequence (Q00788 whole entry): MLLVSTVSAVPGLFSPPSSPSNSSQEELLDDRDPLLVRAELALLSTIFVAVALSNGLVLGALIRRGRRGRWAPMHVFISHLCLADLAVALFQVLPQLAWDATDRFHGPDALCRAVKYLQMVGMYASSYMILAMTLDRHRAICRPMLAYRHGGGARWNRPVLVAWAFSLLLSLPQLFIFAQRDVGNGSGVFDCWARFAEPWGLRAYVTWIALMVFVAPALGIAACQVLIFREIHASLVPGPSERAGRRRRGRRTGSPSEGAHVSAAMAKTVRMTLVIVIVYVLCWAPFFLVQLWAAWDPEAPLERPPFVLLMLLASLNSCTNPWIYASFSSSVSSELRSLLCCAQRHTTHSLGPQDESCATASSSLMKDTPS

Ki [1] [nM] | Ki [2] [nM] | SMILES
3.4 | 1100 | CC[C@H](C)[C@@H]1NC(=O)[C@@H](Cc2ccccc2)NC(=O)[C@@H]2CCCN2C(=O)[C@@H](Cc2ccccc2)N(C)C(=O)[C@@H]2C[C@@H](CN(C)C)C=NN2C(=O)[C@H]2CCC=NN2C1=O (cyclo(I[dPiz(1,6-dehydro)][X6][dNMeF]P[dF]))
> 30000 | 30000 | CC[C@H](C)[C@@H]1NC[C@@H](Cc2ccccc2)NC(=O)[C@@H]2CCCN2C(=O)[C@@H](Cc2ccccc2)N(C)C(=O)[C@@H]2CCC=NN2C(=O)[C@H]2CCC=NN2C1=O
150 | 3400 | CC[C@H](C)[C@H]1C(=O)N2NCCC[C@@H]2C(=O)N2NCCC[C@H]2C(=O)N(C)[C@H](Cc2ccccc2)C(=O)N2CCC[C@H]2C(=O)N[C@H](Cc2ccccc2)C(=O)N1O
30 | 1500 | CC[C@H](C)[C@@H]1NC(=O)[C@@H](Cc2ccccc2)NC(=O)[C@@H]2CCCN2C(=O)[C@@H](Cc2ccccc2)N(C)C(=O)[C@@H]2CCCNN2C(=O)[C@H]2CCCNN2C1=O (cyclo([X3][X4][dNMeF]P[dF]I))

The next lines start with the compound.

SMILES | Ki [1] [nM] | Ki [2] [nM]
CC[C@H](C)[C@@H]1NC(=O)[C@@H](Cc2ccccc2)NC(=O)[C@@H]2CCCN2C(=O)[C@@H](Cc2ccccc2)N(C)C(=O)[C@@H]2C=CC=NN2C(=O)[C@H]2CCC=NN2C1=O (cyclo(I[dPiz(1,6-dehydro)][X7][dNMeF]P[dF])) | 8.1 | 580
CC[C@@H](C)[C@@H]1/N=C(\S)[C@@H](Cc2ccccc2)NC(=O)[C@@H]2CCCN2C(=O)[C@@H](Cc2ccccc2)N(C)C(=O)[C@@H]2CCC=NN2C(=O)[C@H]2CCC=NN2C1=O | 1.1 | 70
CC[C@H](C)[C@@H]1NC(=O)[C@@H](Cc2ccccc2)NC(=O)[C@@H]2CCCN2C(=O)[C@@H](Cc2ccccc2)N(C)C(=O)[C@@H]2CCCN(C)N2C(=O)[C@H]2CCCN(C)N2C1=O (cyclo(I[X1][X2][dNMeF]P[dF])) | 2500 | 3100
CC[C@H](C)[C@@H]1NC(=O)[C@@H](Cc2ccccc2)NC(=O)[C@@H]2CCCN2C(=O)[C@@H](Cc2ccccc2)N(C)C(=O)[C@@H]2CCC(=O)NN2C(=O)[C@H]2CCC=NN2C1=O (cyclo(I[dPiz(1,6-dehydro)][X5][dNMeF]P[dF])) | 9.6 | 6800
CC[C@H](C)[C@@H]1NC(=O)[C@@H](Cc2ccccc2)NC(=O)[C@@H]2CCCN2C(=O)[C@@H](Cc2ccccc2)N(C)C(=O)[C@@H]2CCC(=O)NN2C(=O)[C@H]2CCCNN2C1=O (cyclo(I[X3][X5][dNMeF]P[dF])) | 89 | 7800
